Data taken from patent US20230416225A1, “DIAMINOPYRIMIDINE CARBOXAMIDE INHIBITORS OF HPK1” (MERCK SHARP & DOHME LLC, priority 2020, published 2023).

Molecular target: T1, Human HPK1, catalytic domain (Homo sapiens, UniProt Q92918)
T1 construct: purchased Carna
T1 sequence (Q92918 1-346): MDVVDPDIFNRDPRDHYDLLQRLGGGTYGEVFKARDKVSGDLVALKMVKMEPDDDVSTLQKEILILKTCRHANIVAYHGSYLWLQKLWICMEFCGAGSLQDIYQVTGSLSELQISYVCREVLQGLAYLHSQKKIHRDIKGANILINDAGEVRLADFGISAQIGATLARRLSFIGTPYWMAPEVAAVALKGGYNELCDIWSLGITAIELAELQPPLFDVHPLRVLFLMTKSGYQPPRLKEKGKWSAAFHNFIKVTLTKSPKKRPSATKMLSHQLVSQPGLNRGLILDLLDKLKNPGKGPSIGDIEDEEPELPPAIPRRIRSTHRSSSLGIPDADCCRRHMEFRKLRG
Assay: HPK1-SLP76 TR-FRET assay
Assay type: biochemical
Conditions: 75 pM HPK1, 10 uM ATP, 10 nM SLP76, 30 min compound pre-incubation

IC50	SMILES
0.07 nM	COc1cc2c(cc1Nc1ncc(C(N)=O)c(Nc3ccccc3CC(F)(F)F)n1)CN(C)CC2 [Example 7-98, 2-[(6-methoxy-2-methyl-1,2,3,4-tetrahydroisoquinolin-7-yl)amino]-4-{[2-(2,2,2-trifluoroethyl)phenyl]amino}pyri-midine-5-carboxamide]
0.18 nM	COc1cc2c(cc1Nc1ncc(C(N)=O)c(Nc3ccccc3Br)n1)CN(C1CC(CO)C1)CC2 (single isomer, unassigned) [Example 9-4, 4-((2-bromophenyl)amino)-2-((2-(3-(hydroxymethyl)cyclobutyl)-6-methoxy-1,2,3,4-tetrahydroisoquinolin-7-yl)amino)pyrimidine-5-carboxamide]
4.69 nM	Cn1cc(Nc2ncc(C(N)=O)c(Nc3cccc4c3CCNC4=O)n2)cn1 [Example 7-44, 2-[(1-methyl-1H-pyrazol-4-yl)amino]-4-[(1-oxo-1,2,3,4-tetrahydroisoquinolin-5-yl)amino]pyrimidine-5-carboxamide]
41.3 nM	COc1ncccc1Nc1ncc(C(N)=O)c(Nc2cccc3c2CCNC3=O)n1 [Example 25-45, 2-[(2-methoxypyridin-3-yl)amino]-4-[(1-oxo-1,2,3,4-tetrahydroisoquinolin-5-yl)amino]pyrimidine-S-carboxamide]
594 nM	Cc1cccc(F)c1Nc1nc(Nc2cnn(CC(F)(F)F)c2)ncc1C(N)=O [Example 4-24, 4-[(2-fluoro-6-methylphenyl)amino]-2-{[1-(2,2,2-trifluoroethyl)-1H-pyrazol-4-yl]amino}pyrimidine-5-carboxamide]
0.88 nM	COC(=O)c1ccccc1Nc1nc(Nc2cc3c(cc2OC)CCN(C)C3)ncc1C(N)=O [Example 7-94, methyl 2-({5-carbamoyl-2-[(6-methoxy-2-methyl-1,2,3,4-tetrahydroisoquinolin-7-yl)amino]pyrimidin-4-yl}amino)benzoate]
0.86 nM	COc1cc2c(cc1Nc1ncc(C(N)=O)c(N[C@@H]3c4ccccc4C[C@@H]3O)n1)CN(C)CC2 [Example 26-64, 4-{[(1R,2S)-2-hydroxy-2,3-dihydro-1H-inden-1-yl]amino}-2-[(6-methoxy-2-methyl-1,2,3,4-tetrahydroisoquinolin-7-yl)amino]pyrimidine-5-carboxamide]
63.8 nM	NC(=O)c1cnc(Nc2ccc3c(c2)C(=O)OCC3)nc1Nc1ccccc1Br [Example 7-106, 4-[(2-bromophenyl)amino]-2-[(1-oxo-3,4-dihydro-1H-2-benzopyran-7-yl)amino]pyrimidine-5-carboxamide]
3.01 nM	COc1cc2c(cc1Nc1ncc(C(N)=O)c(N[C@H]3CCCc4cc(F)ccc43)n1)CN(C)CC2 [Example 26-47, 4-{[(1S)-6-fluoro-1,2,3,4-tetrahydronaphthalen-1-yl]amino}-2-[(6-methoxy-2-methyl-1,2,3,4-tetrahydroisoquinolin-7-yl)amino]pyrimidine-5-carboxamide]
28.6 nM	COc1cc2c(cc1Nc1ncc(C(N)=O)c(NC3C4CCC3CNC4)n1)CN(C)CC2 (stereo not drawn) [Example 26-30, 4-[(3-azabicyclo[3.2.1]octan-8-yl)amino]-2-[(6-methoxy-2-methyl-1,2,3,4-tetrahydroisoquinolin-7-yl)amino]pyrimidine-5-carboxamide]
1.29 nM	CS(=O)(=O)c1ccc(Nc2ncc(C(N)=O)c(Nc3cccc4c3CCNC4=O)n2)cc1 [Example 7-48, 2-{[4-(methylsulfonyl)phenyl]amino}-4-[(1-oxo-1,2,3,4-tetrahydroisoquinolin-5-yl)amino]pyrimidine-5-carboxamide]
28.9 nM	COc1cc2c(cc1Nc1ncc(C(N)=O)c(Nc3ccccc3Br)n1)CN(CC(F)F)CC2 [Example 10-3, 4-((2-bromophenyl)amino)-2-((2-(2,2-difluoroethyl)-6-methoxy-1,2,3,4-tetrahydroisoquinolin-7-yl)amino)pyrimidine-5-carboxamide]
